{
  "source": "paper PMC7938888",
  "about": "“Antidepressant drugs act by directly binding to TRKB neurotrophin receptors” (Cell, 2021)",
  "key": {"[1]": {"tested_on": "GluR1 subunit of AMPA receptors", "assay": "Surface GluR1 ELISA in cortical cells of TRKB.Y433F mice", "type": "cell-based, mouse", "experimental": "(§1) Briefly, the MG87.TRKB cells or primary cortical cells from rat or mouse embryos, cultivated in clear bottom 96-well plates (ViewPlate 96, Perkin Elmer), were washed with ice-cold PBS and fixed with 100μl of 4% PFA per well. […] Following washing, the samples were incubated with HRP-conjugated anti-goat or anti-rabbit IgG (1:5000 in blocking buffer) for 1h at RT. The cells were washed 4x with 200μl of PBS for 10 min each. Finally, the chemiluminescent signal generated by reaction with ECL was analyzed in a plate reader."}, "TRKB [2]": {"biological_target": "T1, TRKB (Mus musculus, UniProt P15209)", "T1 sequence (P15209 32-821)": "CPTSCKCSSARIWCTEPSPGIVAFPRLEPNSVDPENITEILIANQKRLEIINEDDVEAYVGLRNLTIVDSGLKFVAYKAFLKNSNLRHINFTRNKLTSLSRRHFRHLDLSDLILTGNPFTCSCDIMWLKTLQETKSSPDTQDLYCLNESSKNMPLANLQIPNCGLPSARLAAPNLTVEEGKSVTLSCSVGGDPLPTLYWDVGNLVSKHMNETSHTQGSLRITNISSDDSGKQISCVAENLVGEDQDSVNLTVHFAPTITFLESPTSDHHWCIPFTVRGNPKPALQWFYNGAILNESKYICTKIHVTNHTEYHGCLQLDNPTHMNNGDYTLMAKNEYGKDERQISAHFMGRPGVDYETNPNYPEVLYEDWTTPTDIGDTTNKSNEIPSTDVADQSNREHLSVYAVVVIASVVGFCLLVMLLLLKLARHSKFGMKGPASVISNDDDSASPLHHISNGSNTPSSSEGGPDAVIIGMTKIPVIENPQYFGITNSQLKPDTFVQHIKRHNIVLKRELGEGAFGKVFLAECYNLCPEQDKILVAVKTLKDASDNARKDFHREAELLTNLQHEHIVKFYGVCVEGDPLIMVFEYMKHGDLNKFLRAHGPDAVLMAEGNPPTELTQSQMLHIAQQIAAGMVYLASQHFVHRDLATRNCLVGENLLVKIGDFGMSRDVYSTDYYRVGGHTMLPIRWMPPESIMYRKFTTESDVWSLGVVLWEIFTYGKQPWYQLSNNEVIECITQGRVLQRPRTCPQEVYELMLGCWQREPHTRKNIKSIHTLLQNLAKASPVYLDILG", "assay": "Cell-free ligand binding assay on immobilised TRKB from HEK293T lysates", "set-up": "wild-type GFP-tagged full length TRKB or the GFP-tagged Y433F TRKB mutant; host or cells: HEK293T", "conditions": "biotinylated R,R-HNK (Figure 2E)"}, "TRKB [3]": {"biological_target": "T1, TRKB", "assay": "Cell-free ligand binding assay on immobilised TRKB from HEK293T lysates", "set-up": "wild-type GFP-tagged full length TRKB or the GFP-tagged Y433F TRKB mutant; host or cells: HEK293T", "conditions": "biotinylated FLX 1 μM", "experimental": "(§2) The cell-free assays (binding assays) were performed in white 96-well plates, based on the protocol used for western-blotting or ELISA ([Baeza-Raja et al., 2016]; [Das et al., 2015]). The plates were precoated with anti-GFP, anti-FLAG, anti-TRK or anti-TRKB antibody (1:1000) in carbonate buffer (pH 9.8), ON at 4°C. Following blocking with 3% BSA in PBS buffer (2 h at RT), 120 ug of total protein from each sample (of lysates from HEK293T cells transfected to overexpress GFP-TRKB.wt or GFP-TRKB.Y433F) were added and incubated overnight at 4°C under agitation. […] The luminescence was determined via HRP-conjugated streptavidin (1:10000, 1h, RT) activity reaction with ECL by a plate reader. The luminescence signal from blank wells (containing all the reagents but the sample lystates, substituted by the blocking buffer) was used as background. The specific signal was then calculated by subtracting the values of blank wells from the values of the samples with matched concentration of the biotinylated ligand. For Figure 2E, the precipitated TRKB.wt or Y433F was incubated with tritiated imipramine (0-30μM) and the radioactive emission of the ligand was determined by scintillation (OptiPhase Supermix cocktail: #1200-439; MicroBeta2, Perkin-Elmer). The scintillation signal from blank wells was used as background, and the specific signal was then calculated by subtracting the values of blank wells from the values of the samples with matched concentration of the radioactive ligand."}, "mice [4]": {"tested_on": "mice", "assay": "Ocular dominance plasticity (monocular deprivation, intrinsic signal imaging)", "type": "in vivo, mouse", "experimental": "The “transparent skull” preparation was executed as described in literature ([Steinzeig et al., 2017]). Briefly, adult female mice (20-22 weeks old) were anesthetized via i.p. injection with a mixture containing: 0.05 mg/kg fentanyl (Hameln, Germany); 5 mg/kg midazolam (Hameln, Germany); 0.5 mg/kg medetomidine (Orion Pharma, Finland); diluted in saline (B Braun, Germany). The animals’ eyes were covered with protective-gel (Alcon, UK). The animal’s head was shaved and disinfected with ethanol and Betadine. The mouse head was then fixed on the stereotaxic frame and the temperature was maintained at 37°C. A mixture of lidocaine and adrenaline (Orion Pharma, Finland) was applied locally on the head and the skin was cut with spring scissors. The incision area was restricted 2 mm above the bregma and caudal edge of intraparietal bone. The scalp was removed and a focused air stream and a cotton swab were used to clean and stop bleeding. The periosteum was gently scratched away from the skull with an eye scalpel and the temporal muscles were pushed aside, in order to expose enough space around the area of interest to attach the metal holder. When the skull was smooth, white and dry, fat was removed from the skull rapidly by passing on it a cotton swab soaked in acetone and the air current was used to avoid its penetration into the bone. Then, with a metal stick, a thin layer of cyanoacrylate glue (Loctite 401, Henkel, Germany) was applied to the surface of the skull, in order to make the skull transparent. After waiting 10 minutes for the glue to dry, a first layer of acryl was applied on the skull surface with a brush. Acryl was used to prolong the life of the transparency and was prepared by stirring acrylic powder (EUBECOS, Germany) with methacrylate liquid (Densply, Germany) until a nail-polish consistency was reached. After 30 minutes, a second layer of acryl was applied and was left to dry overnight. Finally, the animals were injected s.c. with 5 mg/kg Carprofen (ScanVet, Nord Ireland) for postoperative analgesia and i.p. with a wake-up composed by: 1.2 mg/kg Naloxone (Orpha-Devel Handels und Vertriebs GmbH, Austria), opioid receptor antagonist; 0.5 mg/kg Flumazenil (Hameln, Germany), GABA-A receptor antagonist; 2.5 mg/kg Atipamezole (Vet Medic animal Health Oy, Finland), adrenergic receptor antagonist; diluted in saline (B Braun, Germany). The next day, isoflurane at 4% was used for a couple of minutes to induce the anesthesia and then it was reduced at 2% for the procedure. The acryl layer was polished only on the area of interest, using a hand drill with a polishing bit. […]\nOptical imaging. The saturation of haemoglobin in the primary visual cortex of the right hemisphere was measured to assess cortical activity ([Cang et al., 2005]; [Kalatsky and Stryker, 2003]). […]"}, "[5]": {"tested_on": "GluR1 subunit of AMPA receptors", "assay": "Surface GluR1 ELISA in rat cortical cells", "type": "cell-based", "experimental": "as §1"}, "TRKB:PLC-γ1 interaction": {"tested_on": "TRKB:PLC-γ1 interaction", "assay": "TRKB:PLC-γ1 interaction ELISA in cortical cells", "type": "cell-based, rat", "conditions": "rat cortical cells", "experimental": "The TRKB:pY (phosphorylated TRKB), TRKB:PLC-γ1, PLC-γ1:pTRKB.Y816 interactions and were determined by ELISA, based on the general method described in literature ([Antila et al., 2014]; [Fred et al., 2019]), with minor adjustments. Briefly, white 96-well plates (OptiPlate 96F-HB, Perkin Elmer) were coated with capturing anti-TRKB or PLC-γ1 antibody (1:1000) in carbonate buffer (pH = 9.8) overnight (ON) at 4°C. Following a blocking step with 2%BSA in TBS-T (2 h, RT), samples were incubated ON at 4°C. The incubation with antibody against pTRKB.Y816, PLC-γ1 or pY (1:2000, ON, 4°C) was followed by HRP-conjugated anti-Rb IgG (1:5000, 2h, RT) or HRP-conjugated streptavidin (1:10000, 2h, RT). Finally, the chemiluminescent signal generated by the reaction with ECL was analyzed in a plate reader (Varioskan Flash, Thermo Scientific)."}, "TRKB.Y433F": {"biological_target": "T2, TRKB.Y433F (Mus musculus, UniProt P15209, Y433F)", "T2 construct": "wild-type GFP-tagged full length TRKB or the GFP-tagged Y433F TRKB mutant; host or cells: HEK293T", "T2 sequence (P15209 32-821 Y433F)": "as the sequence (P15209 32-821) above, with Y402F counted along it", "assay": "Cell-free ligand binding assay, TRKB.Y433F mutant", "conditions": "tritiated imipramine, biotinylated R,R-HNK", "experimental": "as §2"}, "NMDA receptors": {"tested_on": "NMDA receptors", "set-up": "method as in Zanos et al., 2016, 2018", "conditions": "ref Zanos et al., 2016, 2018; cited from earlier work"}, "mice [6]": {"tested_on": "mice", "assay": "Object location memory (OLM) test", "type": "in vivo, mouse", "conditions": "wild-type mice, R,R-HNK", "experimental": "Object-location memory (OLM): this test was performed in a square arena (28cm side) with opaque walls containing cues (black stripes or spots). The adult male and female mice (18-22 weeks old) were placed for 3 consecutive days (15min per session) in the arena with two identical objects (table tennis balls glued to caps of 50ml Falcon tubes) in the same position throughout the sessions (pretest)."}},
  "data": [
    {"smiles": "N[C@@]1(c2ccccc2Cl)CCC[C@@H](O)C1=O", "note": "[R,R-HNK, 2R,6R-hydroxynorketamine]", "values": [
      {"measurement": "increase in surface GluR1 in neurons from TRKB.Y433F mutant mice", "setting": "[1]", "value": "prevented"},
      {"measurement": "Kd", "setting": "TRKB [2]", "value": 1820, "unit": "nM"},
      {"measurement": "displacement of biotinylated FLX from TRKB", "setting": "TRKB [3]", "value": "readily displaced"},
      {"measurement": "Ki", "setting": "TRKB [3]; read-out: Ki for displacement of biotinylated FLX from TRKB", "value": 2230, "unit": "nM"},
      {"measurement": "effect on shift in ocular dominance", "setting": "mice [4]; TRKB.Y433F mice", "value": "lost"},
      {"measurement": "shift in ocular dominance after 7-day monocular deprivation", "setting": "mice [4]; adult mice, 10 mg/kg i.p. every second day for 8 days", "value": "significant shift in OD"},
      {"measurement": "effect on shift in ocular dominance", "setting": "mice [4]; wild-type mice co-treated with pravastatin", "value": "lost"},
      {"measurement": "cell surface localization of GluR1 subunits of AMPA receptors", "setting": "[5]", "value": "increased cell surface localization of GluR1 subunits"},
      {"measurement": "TRKB interaction with PLC-γ1", "setting": "TRKB:PLC-γ1 interaction", "value": "increased TRKB interaction with PLC-γ1"},
      {"measurement": "affinity to TRKB.Y433F compared with wild-type TRKB", "setting": "TRKB.Y433F", "value": "much lower than to the wild-type TRKB"},
      {"measurement": "affinity to NMDA receptors", "setting": "NMDA receptors", "value": "low affinity"},
      {"measurement": "object location memory", "setting": "mice [6]", "value": "improved object location memory"}
    ]}
  ]
}
